In patent US20070037887A1, “Blockade of mtor to prevent a hormonal adaptive response” (University of Virginia Patent Foundation, priority 2003, published 2007):

Experiments:
[1] = test system: ERK1/2, Akt, p70S6K, PHAS-1 phosphorylation in LTED cells; experiment: EGF induced activation of MAP kinase, PI3 kinase and mTOR in LTED cells (Western); type: cell-based, human; details: pretreatment FTS 1 h, LY 294002 or rapamycin 3 h; EGF 1 μg/ml 1 h
Source text: FIG. 8 represents data showing the effect of FTS on EGF induced activation of MAP kinase, PI3 kinase, and mTOR in LTED cells. […] Cells were then harvested and cell lysate prepared. Phosphorylated and total kinases were detected by Western analysis using specific antibodies.
The effects of the specific growth factors, EFG and IGF-1 were also examined. Serum contains multiple growth factors that activate MAP kinase and PI3 kinase either by recruitment and activation of the common mediator Ras (such as EGF) or through a direct mechanism (such as IGF-1). To further explore the site of action of FTS, EGF-induced activation of MAPK and PI3 kinase was first examined. Specific inhibitors for PI3 kinase and mammalian target of rapamycin (mTOR) were included for comparison. […] One-hour treatment was chosen as the time point allowing most efficient comparisons among molecules.

Shc = experiment: E2-induced Shc phosphorylation in MCF-7 cells; type: cell-based, human; details: 10^−10 M E2 for 3 minutes
Description: Because ERα, Shc and MAP kinase are all involved in E2 action in MCF-7 cells, upstream components responsible for Shc phosphorylation were determined by measuring the effects of PP2, ICI and PD98059 on E2-induced phosphorylation of Shc. In the presence of the inhibitors, MCF-7 cells were stimulated with vehicle or 10^−10 M E2 for 3 minutes and the status of Shc phosphorylation was examined. […] No effects of these inhibitors were apparent in the absence of E2 stimulation. […] Each of these inhibitors was capable of reducing the rate of cell proliferation in LTED cells.

LTED cells = experiment: [3H] thymidine incorporation into DNA, LTED cells; type: cell-based, human; details: inhibitors of the MAP kinase pathway
Description: (§1) FIGS. 5A & 5B represent the effect of FTS on DNA synthesis in MCF-7 (FIG. 5A) and LTED (FIG. 5B) cells. One hundred thousand cells were plated into each well of 24-well plates. Two days later, the cells were re-fed with IMEM containing 5% DCC-FBS. After another two days, cells were treated in quadruplicate with the compounds indicated for 18 hours. [^3H] thymidine (1 μCi/well) was added during the last 2 h of incubation. [^3H] thymidine incorporated into DNA was normalized by protein content.
(§2) The inhibitory effect of FTS on cell growth may be the result of inhibition of cellular proliferation, induction of apoptosis, or both. To determine the mechanism by which FTS inhibits cell growth, FTS's effect on DNA synthesis and apoptosis was investigated. […] Estradiol (10^−10 M) increased [^3H] thymidine incorporation by 2.6 fold compared to the control level in MCF-7 cells.

MAP kinase = MAP kinase activation in LTED cells; type: cell-based, human
Description: Upregulation of MAP kinase and PI-3-kinase could reflect either a constitutive activation of growth factor receptors, an increase in the endogenous secretion of growth factors, or other mechanisms. Inhibition of MAP kinase with a pure antiestrogen would rule out the possibility of constitutive activation of growth factor receptors or growth factor secretion. Accordingly, the pure anti-estrogen, faslodex (fulvestrant) was administered and the level of activation of MAP kinase in LTED cells was examined.
Estrogen deprivation might trigger activation of a non-genomic, estrogen regulated, MAP kinase pathway which utilizes Shc. […] The addition of E2 stimulated MAP kinase phosphorylation in LTED cells within minutes. The increased MAP kinase phosphorylation by E2 was time and dose-dependent being greatly stimulated at 15 min and remaining elevated for at least 30 min. Maximal stimulation of MAP kinase phosphorylation was at 10^−10 M of E2.

MCF-7 cells [2] = experiment: Growth of MCF-7 cells (cell number); type: cell-based, human; details: E2 10^−10 M, five-day treatment
Description: FIG. 3 represents the effect of FTS on the growth of MCF-7, LTED, and MCF-10A cells. Sixty thousand cells were plated into each well of 6-well plates. Two days later, the cells were treated in triplicate for five days with FTS at indicated concentrations. The results (mean±S.E.) are expressed as percentage of the vehicle control.
FIG. 4 represents the effect of FTS on E2 stimulated growth of MCF-7 and LTED cells. Thirty thousand cells were plated into each well of 6-well plates. Two days later, the cells were re-fed with IMEM containing 5% DCC-FBS. After another two days, cells were treated in triplicate with estradiol (10^−10 M) plus various concentrations of FTS for five days. In LTED cells, fulvestrant (10^−9 M) was included in all wells to block the effect of residual estrogen in the culture. The results (mean±S.E.) are expressed as percentage of cell number from the wells containing E2.
The effect of FTS on growth of breast cancer cells was examined in two different cell lines: MCF-7 wild type cells which represent a model for untreated breast cancer and LTED cells as a model of cells adapting to endocrine treatment. Cells were grown in their culture media and treated with FTS for five days. […] The effect of FTS on E2-stimulated growth of MCF-7 and LTED cells was the examined. Five-day treatment of MCF-7 cells with E2 (10^−10 M) increased cell number by 8-fold compared with the vehicle control. Addition of FTS reduced cell number in a dose-dependent manner with about 50% inhibition at the concentration of 50 μM […]. […] The extent of inhibition of E2-stimulated cell growth by FTS was similar in these two cell lines.

MCF-7 cells [3] = experiment: [3H] thymidine incorporation into DNA, MCF-7 cells; type: cell-based, human; details: Estradiol 10^−10 M
Description: as §1, §2

mTOR = target: T1, mTOR (Rattus norvegicus, UniProt P42346); experiment: Immune complex assay of mTOR activity after incubating 293T cells with compound; type: cell-based; details: 293T cells incubated with 200 μM
T1 construct: expressed in transfected cells; host or cells: 293T
Description: (§3) FIGS. 12A & 12B represent data showing the effects of incubating cells with increasing concentrations of FTS and GTS on mTOR activity and mTOR association with raptor and mLST8. AU1-mTOR, HA-raptor, and HAmLST8 were overexpressed in 293T cells. The cells were then incubated for 1 h with increasing concentrations of FTS (●, ▴, ▪) or GTS (∘, Δ, □) before extracts were prepared. Immunoprecipitations were then conducted with anti-AU1 antibodies. mTOR kinase activity (●, ∘) was determined by measuring ^32P incorporation into [His^6]PHAS-I in immune complex kinases assays performed with [γ-^32P]ATP. The relative amounts of HA-raptor (▴, Δ) and HA-mLST8 (▪, □) that coimmunoprecipitated with AU1-mTOR were determined after immunoblotting with anti-HA antibodies. The results (mean values±S.E. from 3 experiments) are expressed as percentages of the mTOR activity (FIG. 12A) or coimmunoprecipitating proteins (FIG. 12B) from samples incubated without FTS or GTS, and have been corrected for the amounts of AU1-mTOR immunoprecipitated.
FIG. 12A presents results of immune complex kinases assays with AU1-mTOR from extracts of 293T cells that had been incubated with increasing concentrations of FTS.
Immune complex assay of mTOR activity—AU1-mTOR was immunoprecipitated by using anti-AU1 antibody bound to protein G-agarose beads as described previously (McMahon, et al., (2002) Mol. Cell. Biol. 22, 7428-7438). Endogenous mTOR was immunoprecipitated in the same manner, except that mTAb1 was used instead of anti-AU1 antibody. To measure kinase activity, exhaustively washed immune complexes were suspended in 20 μl of Buffer A (50 mM NaCl, 0.1 mM EGTA, 1 mM dithiothreitol (DTT), […], 10 mM Na-HEPES, and 50 mM β-glycerophosphate, pH 7.4.). The kinase reactions were initiated by adding 20 μl of Buffer A supplemented with 2 mM [γ-^32P]ATP, 20 mM MnCl2 and 40 μg/ml of [His^6]PHAS-I. In experiments in which the effects of wortmannin were investigated, DTT was omitted from the reactions, and [His^6]PHAS-I that had been reduced and alkylated with N-ethylmaleimide was used as substrate. Reactions were terminated after 10 min at 30° by adding SDS sample buffer. Samples were subjected to SDS-PAGE and the relative amounts of ^32P incorporated into [His^6]PHAS-I were determined.

mTOR-raptor complex = experiment: Coimmunoprecipitation of raptor with mTOR from 293T cells incubated with compound; type: cell-based; details: 293T cells incubated with 200 μM
Description: FIG. 11A & 11B represent data showing FTS inhibits PHAS-I phosphorylation and promotes dissociation of the mTOR-raptor complex in 293T cells. 293T cells were transfected with pcDNA3AU1-mTOR, pcDNA33HARaptor, pcDNA33HA-mLST8, and pCMV-Tag3APHAS-I (FIG. 11A). After 18 h the cells were incubated for 1 h with increasing concentrations of FTS before extracts were prepared. A sample of each extract was subjected to SDS-PAGE and immunoblotted to detect PHAS-I or PThr^36/45. AU1-mTOR was also immunoprecipitated from each extract, and immune complexes were subjected to SDSPAGE and immunoblotted with mTAb2, to detect mTOR, and with anti-HA antibodies, to detect HA-mLST8 and HA-raptor. Nontransfected 293T cells were incubated with increasing concentrations of FTS for 1 h before extracts were prepared. mTOR was immunoprecipitated with mTAb1, and samples were subjected to SDS-PAGE.
as §3
To investigate further the inhibitory effects of FTS on mTOR signaling, the effect of the drug on the association of mTOR, raptor, and mLST8 was determined. AU1-mTOR and HA-tagged forms of raptor and mLST8 were overexpressed in 293T cells, which were then incubated with increasing concentrations of FTS before AU1-mTOR was immunoprecipitated with anti-AU1 antibodies. Immunoblots were prepared with anti-HA antibodies to assess the relative amounts of HA-raptor and HA-mLST8 that coimmunoprecipitated with AU 1-mTOR (FIG. 11A).
Results obtained with overexpressed proteins are not necessarily representative of responses of endogenous proteins. Therefore, experiments were conducted to investigate the effect FTS on the endogenous TORC1 in nontransfected cells. […]

MCF-7 cells [4] = experiment: Estradiol dose response of growth, wild type MCF-7 cells; type: cell-based, human; details: TGF alpha 10 ng/ml
Description: As further evidence of the role of MAP kinase, PD 98059 was administered to LTED cells and its effect on level of sensitivity to estradiol was examined.
To investigate whether the MAP and P13 kinase pathways have a role in estradiol induced cell proliferation, the following experiments were conducted. […] Blockade of this effect was obtained with the MAPK inhibitor PD98059. Administration of TGF at a dose of 10 ng/ml caused a 2-log shift to the left in the ability of estradiol to stimulate the growth of wild-type MCF-7 cells. […] Dual inhibition of PI3K with LY40029 and MAPK with U0126 shifted the level of sensitivity to estradiol more dramatically, by more than 2 logs to the right. On the basis of these observations, it is believed that adaptive hypersensitivity involves the joint activation of the PI3K and MAPK pathways.

O=c1cc(N2CCOCC2)oc2c(-c3ccccc3)cccc12 [LY 294002, reference compound]
EGF-induced ERK1/2 MAP kinase phosphorylation [1]: did not inhibit

CC(C)(C)n1nc(-c2ccc(Cl)cc2)c2c(N)ncnc21 [PP2]
E2-induced Shc phosphorylation (Shc): effectively inhibited

N#CC(=C(/N)Sc1ccccc1N)/C(C#N)=C(\N)Sc1ccccc1N [U 0126]
incorporation of tritiated thymidine into DNA (LTED cells): block the incorporation

C[C@]12CC[C@@H]3c4ccc(O)cc4CC[C@H]3[C@@H]1CC[C@@H]2O [estradiol, reference compound]
concentration of maximal stimulation of MAP kinase phosphorylation (MAP kinase): 10^−10 M | increase of cell number compared with the vehicle control (MCF-7 cells [2]): 8 fold | increase of [3H] thymidine incorporation compared to control level (MCF-7 cells [3]): 2.6 fold

O=c1c(-c2ccc(O)cc2)coc2cc(O)cc(O)c12 [genestein]
incorporation of tritiated thymidine into DNA (LTED cells): block tritiated thymidine uptake

CC[C@H](C)C(=O)O[C@H]1CCC=C2C=C[C@H](C)[C@H](CC[C@@H]3C[C@@H](O)CC(=O)O3)[C@H]21 [mevastatin]
incorporation of tritiated thymidine into DNA (LTED cells): block tritiated thymidine uptake

CO[C@H]1C[C@@H]2CC[C@@H](C)[C@@](O)(O2)C(=O)C(=O)N2CCCC[C@H]2C(=O)O[C@H]([C@H](C)C[C@@H]2CC[C@@H](O)[C@H](OC)C2)CC(=O)[C@H](C)/C=C(\C)[C@@H](O)[C@@H](OC)C(=O)[C@H](C)C[C@H](C)/C=C/C=C/C=C/1C [rapamycin, reference compound]
EGF-induced ERK1/2 MAP kinase phosphorylation [1]: did not inhibit

O=C([O-])c1ccccc1O.[Na+] [sodium salicylate, reference compound]
mTOR activity (mTOR): without effect | association of mTOR and raptor (mTOR-raptor complex): without effect

TGF alpha: growth factor used to activate MAP kinase in wild type MCF-7 cells
shift to the left of estradiol dose response for growth (MCF-7 cells [4]): two log shift to the left | shift to the left of estradiol dose response for growth (MCF-7 cells [4]; listed as TGF): 2 log
